The record followed here is patent publication US8846698B2, “Pyrrolo[2,3-d]pyrimidine tropomysin-related kinase inhibitors” (Pfizer Limited, priority 2011, dated 2014).

The target of the assay is TRKA (Homo sapiens (Human), UniProt P04629). Put plainly: Isolated TRK enzyme assay (HTRF KinEASE-TK), TRKA. The note with it: read-out: Trka enzyme (IC50). In kind it is biochemical.
TRKA, sequence (P04629 441-796): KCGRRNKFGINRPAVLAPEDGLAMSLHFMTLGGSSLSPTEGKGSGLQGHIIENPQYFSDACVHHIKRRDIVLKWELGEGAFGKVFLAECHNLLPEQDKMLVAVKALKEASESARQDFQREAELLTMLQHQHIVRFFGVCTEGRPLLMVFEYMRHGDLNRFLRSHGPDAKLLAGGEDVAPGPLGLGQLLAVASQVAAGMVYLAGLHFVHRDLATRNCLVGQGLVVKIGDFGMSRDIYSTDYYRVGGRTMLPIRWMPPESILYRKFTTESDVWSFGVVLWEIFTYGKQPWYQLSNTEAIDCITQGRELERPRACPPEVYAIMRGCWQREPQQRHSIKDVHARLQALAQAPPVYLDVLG

In general, IC50 refers to the concentration that gives 50% inhibition. On to `COc1cc(C(=O)Nc2cncc(C(=O)c3cn(C(C)C)c4ncncc34)c2)nc2c(C)nccc12` [Example 483, 4-Methoxy-8-methyl-1,7-naphthyridine-2-carboxylic acid [5-(7-isopropyl-7H-pyrrolo[2,3-d]pyrimidine-5-carbonyl)-pyridin-3-yl]-amide], for which the IC50 is 118 nM.

For the compound `CCc1nc(C)c(C(=O)Nc2cncc(C(=O)c3cn(C(C)C)c4ncncc34)c2)o1` [Example 484, 2-Ethyl-4-methyl-oxazole-5-carboxylic acid [5-(7-isopropyl-7H-pyrrolo[2,3-d]pyrimidine-5-carbonyl)-pyridin-3-yl]-amide], the IC50 was found to be 192 nM. On to `COc1cncc(C(=O)Nc2cncc(C(=O)c3cn(C(C)C)c4ncncc34)c2)c1` [Example 485, N-[5-(7-Isopropyl-7H-pyrrolo[2,3-d]pyrimidine-5-carbonyl)-pyridin-3-yl]-5-methoxy-nicotinamide], for which the IC50 came to 20 nM. Regarding `CC(C)n1cc(C(=O)c2cncc(NC(=O)c3cnc4[nH]ncc4c3)c2)c2cncnc21` [Example 486, 1H-Pyrazolo[3,4-b]pyridine-5-carboxylic acid [5-(7-isopropyl-7H-pyrrolo[2,3-d]pyrimidine-5-carbonyl)-pyridin-3-yl]-amide], the 50% inhibitory concentration (IC50) came out at 805 nM. Regarding `CC(C)n1cc(C(=O)c2cncc(NC(=O)c3cnc4[nH]cnc4c3)c2)c2cncnc21` [Example 487, 3H-Imidazo[4,5-b]pyridine-6-carboxylic acid [5-(7-isopropyl-7H-pyrrolo[2,3-d]pyrimidine-5-carbonyl)-pyridin-3-yl]-amide], the IC50 came out at 9800 nM. For the compound `COc1nccn2cc(C(=O)Nc3cncc(C(=O)c4cn(C(C)C)c5ncncc45)c3)nc12` [Example 488, 8-Methoxy-imidazo[1,2-a]pyrazine-2-carboxylic acid [5-(7-isopropyl-7H-pyrrolo[2,3-d]pyrimidine-5-carbonyl)-pyridin-3-yl]-amide], the IC50 came to 64.6 nM.

Consider `CC(C)n1cc(C(=O)c2cncc(NC(=O)c3ccncc3)c2)c2cncnc21` [Example 489, N-[5-(7-Isopropyl-7H-pyrrolo[2,3-d]pyrimidine-5-carbonyl)-pyridin-3-yl]-isonicotinamide], for which the IC50 worked out at 9800 nM. Take `Cc1cccnc1C(=O)Nc1cncc(C(=O)c2cn(C(C)C)c3ncncc23)c1` [Example 490, 3-Methyl-pyridine-2-carboxylic acid[5-(7-isopropyl-7H-pyrrolo[2,3-d]pyrimidine-5-carbonyl)-pyridin-3-yl]-amide]: the IC50 was 9800 nM. Then `CC(C)n1cc(C(=O)c2cncc(NC(=O)c3cnc4occc4c3)c2)c2cncnc21` [Example 491, Furo[2,3-b]pyridine-5-carboxylic acid [5-(7-isopropyl-7H-pyrrolo[2,3-d]pyrimidine-5-carbonyl)-pyridin-3-yl]-amide], with 1410 nM; and `CC(C)c1nnc2ccc(C(=O)Nc3cncc(C(=O)c4cn(C(C)C)c5ncncc45)c3)cn12` [Example 492, 3-Isopropyl-1,2,4-triazolo[4,3-a]pyridine-6-carboxylic acid [5-(7-isopropyl-7H-pyrrolo[2,3-d]pyrimidine-5-carbonyl)-pyridin-3-yl]-amide], with 1690 nM. As to `CC(C)n1cc(C(=O)c2cncc(NC(=O)c3cocn3)c2)c2cncnc21` [Example 493, Oxazole-4-carboxylic acid [5-(7-isopropyl-7H-pyrrolo[2,3-d]pyrimidine-5-carbonyl)-pyridin-3-yl]-amide], the IC50 is 848 nM.

`CC(C)n1cc(C(=O)c2cncc(NC(=O)c3ncccc3Cl)c2)c2cncnc21` [Example 494, 3-Chloro-pyridine-2-carboxylic acid[5-(7-isopropyl-7H-pyrrolo[2,3-d]pyrimidine-5-carbonyl)-pyridin-3-yl]-amide]: the IC50 amounted to 2570 nM.

As for `CC(C)n1cc(C(=O)c2cncc(NC(=O)c3cnc4nccn4c3)c2)c2cncnc21` [Example 495, Imidazo[1,2-a]pyrimidine-6-carboxylic acid [5-(7-isopropyl-7H-pyrrolo[2,3-d]pyrimidine-5-carbonyl)-pyridin-3-yl]-amide], the IC50 was 9800 nM. Turning to `CC(C)n1cc(C(=O)c2cncc(NC(=O)c3cc(C4CC4)on3)c2)c2cncnc21` [Example 496, 5-Cyclopropyl-isoxazole-3-carboxylic acid [5-(7-isopropyl-7H-pyrrolo[2,3-d]pyrimidine-5-carbonyl)-pyridin-3-yl]-amide], the IC50 is 199 nM.

Take `CC(C)n1cc(C(=O)c2cncc(NC(=O)c3cc(C4CC4)n[nH]3)c2)c2cncnc21` [Example 497, 5-Cyclopropyl-2H-pyrazole-3-carboxylic acid [5-(7-isopropyl-7H-pyrrolo[2,3-d]pyrimidine-5-carbonyl)-pyridin-3-yl]-amide]: the IC50 was 43.5 nM. For `Cc1cc2nnc(C(=O)Nc3cncc(C(=O)c4cn(C(C)C)c5ncncc45)c3)c(C)n2n1` [Example 498], the IC50 is 2340 nM. Consider `Cc1ccncc1C(=O)Nc1cncc(C(=O)c2cn(C(C)C)c3ncncc23)c1` [Example 499, N-[5-(7-Isopropyl-7H-pyrrolo[2,3-d]pyrimidine-5-carbonyl)-pyridin-3-yl]-4-methyl-nicotinamide], for which the IC50 is 9800 nM. With `CC(C)n1cc(C(=O)c2cncc(NC(=O)c3cn(C4CCC4)cn3)c2)c2cncnc21` [Example 500, 1-Cyclobutyl-1H-imidazole-4-carboxylic acid [5-(7-isopropyl-7H-pyrrolo[2,3-d]pyrimidine-5-carbonyl)-pyridin-3-yl]-amide], the IC50 was found to be 25.8 nM. As for `CC(C)n1cc(C(=O)c2cncc(NC(=O)c3cc4ccccn4n3)c2)c2cncnc21` [Example 501, Pyrazolo[1,5-a]pyridine-2-carboxylic acid [5-(7-isopropyl-7H-pyrrolo[2,3-d]pyrimidine-5-carbonyl)-pyridin-3-yl]-amide], the IC50 was 201 nM. Take `CC(C)n1cc(C(=O)c2cncc(NC(=O)c3ccc4nnnn4c3)c2)c2cncnc21` [Example 502, Tetrazolo[1,5-a]pyridine-6-carboxylic acid [5-(7-isopropyl-7H-pyrrolo[2,3-d]pyrimidine-5-carbonyl)-pyridin-3-yl]-amide]: the IC50 amounted to 6280 nM. As for `CC(C)n1cc(C(=O)c2cncc(NC(=O)c3nnc4n3CCCC4)c2)c2cncnc21` [Example 503, 5,6,7,8-Tetrahydro-1,2,4-triazolo[4,3-a]pyridine-3-carboxylic acid [5-(7-isopropyl-7H-pyrrolo[2,3-d]pyrimidine-5-carbonyl)-pyridin-3-yl]-amide], the figure is 963 nM. As for `Cc1nc(C(=O)Nc2cncc(C(=O)c3cn(C(C)C)c4ncncc34)c2)c(C(F)(F)F)o1` [Example 504, 2-Methyl-5-trifluoromethyl-oxazole-4-carboxylic acid [5-(7-isopropyl-7H-pyrrolo[2,3-d]pyrimidine-5-carbonyl)-pyridin-3-yl]-amide], the figure is 1020 nM. For `CC(C)n1cc(C(=O)c2cncc(NC(=O)c3cnc4cc[nH]c4c3)c2)c2cncnc21` [Example 505, 1H-Pyrrolo[3,2-b]pyridine-6-carboxylic acid [5-(7-isopropyl-7H-pyrrolo[2,3-d]pyrimidine-5-carbonyl)-pyridin-3-yl]-amide], the IC50 was found to be 1630 nM.
